Laboratory results: US8063242B2, “2-aryl-propionic acids and pharmaceutical compositions containing them” (Dompe PHA.R.MA S.p.A., priority 2001, dated 2011)

Assays:
CXCR1 = target: T1, CXCR1 (Homo sapiens, UniProt P25024); experiment: IL-8 induced PMN chemotaxis test; type: cell-based; details: for inhibition at 1 µM: compound 10^−6 M, IL-8 induced PMN chemotaxis, IL-8 10^−9 M, read-out: % inhibition (C = 10^−6 M); for inhibition at 0.01 µM: read-out: % of inhibition IL-8 (c = 10^−8 M)
T1 construct: endogenous in cells; host or cells: human polymorphonucleate leukocytes (PMNs) from blood of healthy volunteers
T1 sequence (P25024 1-350): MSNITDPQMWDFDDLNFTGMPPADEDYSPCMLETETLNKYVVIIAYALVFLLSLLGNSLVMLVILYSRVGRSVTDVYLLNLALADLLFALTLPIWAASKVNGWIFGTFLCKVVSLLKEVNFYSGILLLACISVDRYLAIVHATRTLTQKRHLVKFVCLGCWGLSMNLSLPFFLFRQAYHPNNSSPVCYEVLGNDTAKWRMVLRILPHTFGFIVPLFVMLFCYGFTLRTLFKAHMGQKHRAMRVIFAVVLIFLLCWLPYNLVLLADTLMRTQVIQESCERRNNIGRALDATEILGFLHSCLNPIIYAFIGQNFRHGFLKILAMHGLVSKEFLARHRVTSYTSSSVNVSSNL
Protocol: (§1) The compounds of the invention of formula (I) were evaluated in vitro for their ability to inhibit chemotaxis of polymorphonucleate leukocytes (hereinafter referred to as PMNs) and monocytes induced by the fractions of IL-8 and GRO-α. For this purpose, in order to isolate the PMNs from heparinized human blood, taken from healthy adult volunteers, mononucleates were removed by means of sedimentation on dextran (according to the procedure disclosed by W. J. Ming et al., J. Immunol., 138, 1469, 1987) and red blood cells by a hypotonic solution. The cell vitality was calculated by exclusion with Trypan blue, whilst the ratio of the circulating polymorphonucleates was estimated on the cytocentrifugate after staining with Diff Quick.
Human recombinant IL-8 (Pepro Tech) was used as stimulating agents in the chemotaxis experiments, giving practically identical results: the lyophilized protein was dissolved in a volume of HBSS containing 0.2% bovin serum albumin (BSA) so thus to […]
(§2) During the chemotaxis assay (according to W. Falket et al., J. Immunol. Methods, 33, 239, 1980) PVP-free filters with a porosity of 5 μm and microchambers suitable for replication were used.
(§3) The compounds of the invention in formula (I) were evaluated at a concentration ranging between 10^−6 and 10^−10 M; for this purpose they were added, at the same concentration, both to the lower pores and the upper pores of the microchamber. Evaluation of the ability of the compounds of the invention of formula (I) to inhibit IL-8-induced chemotaxis of human monocytes was carried out according to the method disclosed by Van Damme J. et al. (Eur. J. Immunol., 19, 2367, 1989).

CXCR2 = target: T2, CXCR2 (Homo sapiens, UniProt P25025); experiment: GRO-α induced PMN chemotaxis test; type: cell-based; details: compound 10^−8 M, PMN chemotaxis induced by GRO-α; for inhibition at 0.01 µM: read-out: % of inhibition GRO-α (c = 10^−8 M)
T2 construct: endogenous in cells; host or cells: human polymorphonucleate leukocytes (PMNs) from blood of healthy volunteers
T2 sequence (P25025 1-360): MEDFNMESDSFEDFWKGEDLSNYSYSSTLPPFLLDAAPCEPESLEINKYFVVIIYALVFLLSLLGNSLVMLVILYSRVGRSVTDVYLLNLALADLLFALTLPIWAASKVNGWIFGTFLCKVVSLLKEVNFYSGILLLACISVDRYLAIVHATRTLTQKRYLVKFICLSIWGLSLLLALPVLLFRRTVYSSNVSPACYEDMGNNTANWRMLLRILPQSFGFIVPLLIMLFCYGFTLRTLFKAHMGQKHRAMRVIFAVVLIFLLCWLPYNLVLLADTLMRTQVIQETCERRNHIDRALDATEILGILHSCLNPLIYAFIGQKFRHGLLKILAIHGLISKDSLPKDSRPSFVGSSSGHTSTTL
Protocol: as §1, §2, §3
In the table below, biological activities of compounds showing high potency in the inhibition of PMN chemotaxis induced as by IL-8 as by the selective CXCR2 agonist GRO-α are reported.

[1] = compound 10^−8 M, PMN chemotaxis induced by IL-8

CC(C)c1cccc(C(C)C(=O)O)c1 (stereo not drawn) [Example 5, 2-[(3′-isopropyl)phenyl]propionic acid]
inhibition at 1 µM (CXCR1): 51 ± 12%

CCC(CC)c1cccc(C(C)C(=O)O)c1 (racemic) [Example 6, (R,S) 2-[3′-(alpha-ethyl-propyl)phenyl]propionic acid]
inhibition at 1 µM (CXCR1): 58 ± 2%

C[C@@H](C(=O)O)c1ccc(NS(=O)(=O)c2ccccc2Cl)cc1 [Example 32, (R) 2-[4′-(2″-chloro)benzenesulfonylamino]phenylpropionic acid]
inhibition at 0.01 µM (CXCR2): 66 ± 10%
inhibition at 0.01 µM (CXCR1; [1]): -2 ± 10%

C[C@H](C(=O)O)c1ccccc1Nc1c(Cl)cccc1Cl [Example 20]
inhibition at 1 µM (CXCR1): 50 ± 7%

C[C@@H](C(=O)O)c1ccc(NS(=O)(=O)C(F)(F)F)cc1 [Example 30, (R) 2-(4′-trifluoromethanesulfonylamino)phenylpropionic acid]
inhibition at 0.01 µM (CXCR2): 40 ± 14%
inhibition at 0.01 µM (CXCR1; [1]): 8 ± 10%

C[C@@H](C(=O)O)c1ccc(NS(=O)(=O)Cc2ccccc2)cc1 [Example 31, (R) 2-(4′-benzylsulfonylamino)phenylpropionic acid]
inhibition at 0.01 µM (CXCR2): 24 ± 8%
inhibition at 0.01 µM (CXCR1; [1]): 60 ± 10%

C[C@@H](C(=O)O)c1ccc(OS(N)(=O)=O)cc1 [Example 41, (R) 2-(4′-aminosulfonyloxy)phenylpropionic acid]
inhibition at 0.01 µM (CXCR2): 5 ± 7%
inhibition at 0.01 µM (CXCR1; [1]): 65 ± 10%

C[C@@H](C(=O)O)c1ccc(NS(=O)(=O)c2ccccc2)cc1 [Example 27]
% of inhibition GRO-α (c = 10^−8 M) (CXCR2): 33 ± 11+ %
% of inhibition IL-8 (c = 10^−8 M) (CXCR1; [1]): 49 ± 11%

CC(C(=O)O)c1ccccc1Oc1c(Cl)cccc1Cl (racemic) [Example 25, (R,S) 2-[2′-(2″,6″-dichloro)phenoxy]phenylpropionic acid]
inhibition at 1 µM (CXCR1): 41 ± 9%

CC(O)c1cccc(C(C)C(=O)O)c1 [Example 16, (R,S), (R,S) 2-[3′-(alpha-hydroxy-ethyl)phenyl]propionic acid]
inhibition at 1 µM (CXCR1): 57 ± 6%

CC(C(=O)O)c1cccc(C(C)c2ccccc2)c1 (stereo not drawn) [Example 7]
inhibition at 1 µM (CXCR1): 54 ± 4%

CCc1ccccc1S(=O)(=O)Nc1ccc([C@@H](C)C(=O)O)cc1 [Example 33, (R) 2-[4′-(2″-ethyl)benzenesulfonylamino]phenylpropionic acid]
inhibition at 0.01 µM (CXCR2): 80 ± 10%
inhibition at 0.01 µM (CXCR1; [1]): 44 ± 14%

CC(C)S(=O)(=O)Oc1ccc([C@@H](C)C(=O)O)cc1 [Example 38, (R) 2-[4′-(2″-propane)sulfonyloxy]phenylpropionic acid]
inhibition at 0.01 µM (CXCR2): 46 ± 6%
inhibition at 0.01 µM (CXCR1; [1]): 49 ± 8%

C[C@@H](C(=O)O)c1ccc(OS(=O)(=O)c2ccccc2Cl)cc1 [Example 39, (R) 2-[4′-(2″-chloro)benzenesulfonyloxy]phenylpropionic acid]
inhibition at 0.01 µM (CXCR2): 65 ± 10%
inhibition at 0.01 µM (CXCR1; [1]): 25 ± 7%

C[C@@H](C(=O)O)c1ccc(NS(N)(=O)=O)cc1 [Example 34, (R) 2-(4′-aminosulfonylamino)phenylpropionic acid]
inhibition at 0.01 µM (CXCR2): 2 ± 5%
inhibition at 0.01 µM (CXCR1; [1]): 55 ± 10%

C[C@@H](C(=O)O)c1ccccc1Nc1c(Cl)cccc1Cl [Example 19]
inhibition at 1 µM (CXCR1): 46 ± 14%

CC(C(=O)O)c1ccccc1Nc1c(Cl)cccc1Cl (racemic) [Example 18, (R,S) 2-[2′-(2″,6″-dichlorophenyl)aminophenylpropionic acid]
inhibition at 1 µM (CXCR1): 52 ± 3%

CC(C)c1cccc([C@@H](C)C(=O)O)c1 [Example 10, (R)-2-[(3′-isopropyl)phenyl]-propionic acid]
inhibition at 1 µM (CXCR1): 43 ± 18%

C[C@@H](C(=O)O)c1ccc(OS(=O)(=O)Cc2ccccc2)cc1 [Example 36, (R) 2-(4′-benzylsulfonyloxy)phenylpropionic acid]
inhibition at 0.01 µM (CXCR2): 25 ± 11%
inhibition at 0.01 µM (CXCR1; [1]): 59 ± 11%

C[C@@H](C(=O)O)c1ccc(OS(=O)(=O)C(F)(F)F)cc1 [Example 37, (R) 2-(4′-trifluoromethanesulfonyloxy)phenylpropionic acid]
inhibition at 0.01 µM (CXCR2): 59 ± 10%
inhibition at 0.01 µM (CXCR1; [1]): 62 ± 7%

C[C@@H](C(=O)O)c1ccc(CS(=O)(=O)c2ccccc2)cc1 [Example 42, (R) 2-(4′-benzenesulfonylmethyl)phenylpropionic acid]
inhibition at 0.01 µM (CXCR2): 52 ± 5%
inhibition at 0.01 µM (CXCR1; [1]): 60 ± 7%

CC(C)S(=O)(=O)Nc1ccc([C@@H](C)C(=O)O)cc1 [Example 29, (R) 2-[4′-(2″-propane)sulfonylamino]phenylpropionic acid]
inhibition at 0.01 µM (CXCR2): 44 ± 12%
inhibition at 0.01 µM (CXCR1; [1]): 54 ± 14%

CCc1ccccc1S(=O)(=O)Oc1ccc([C@@H](C)C(=O)O)cc1 [Example 40, (R) 2-[4′-(2″-ethyl)benzenesulfonyloxy]phenylpropionic acid]
inhibition at 0.01 µM (CXCR2): 70 ± 10%
inhibition at 0.01 µM (CXCR1; [1]): 45 ± 13%

C[C@@H](C(=O)O)c1ccc(CS(=O)(=O)C(F)(F)F)cc1 [Example 43, (R) 2-(4′-trifluoromethanesulfonylmethyl)phenylpropionic acid]
inhibition at 0.01 µM (CXCR2): 45 ± 7%
inhibition at 0.01 µM (CXCR1; [1]): 48 ± 7%

C[C@@H](C(=O)O)c1ccc(NS(C)(=O)=O)cc1 [Example 28, (R) 2-(4′-methanesulfonylamino)phenylpropionic acid]
inhibition at 0.01 µM (CXCR2): 32 ± 5%
inhibition at 0.01 µM (CXCR1; [1]): 25 ± 7%

CC(C)c1cccc([C@H](C)C(=O)O)c1 [Example 14, (S)-2-[(3′-isopropyl)phenyl]-propionic acid]
inhibition at 1 µM (CXCR1): 50 ± 9%
